Results published in PubChem BioAssay AID2060349 (Molecular Pharmacology Branch, DTP, NCI, 2025).
Where “and” joins values, the source holds several entries; their conditions need not be identical. Equal values may be shown once. Blank lines part the entries; values can stand above or below the compound they belong to.

Tested on: 762968-020-R-J2-PDC spheroids viability
Assay: Anticancer human tumor 762968-020-R-J2-PDC patient-derived colon carcinoma cell line growth inhibition [TAK]
Settings: spheroids with HUVEC and MSC; for viability, T/C: stronger effect = lower value
Source text: Combinatorial screen of targeted agents with TAK-243 and ipatasertib in multi-cell type tumor spheroids
A high-throughput screen of multi-cell type tumor spheroids was designed to identify active combinations of targeted small molecules and TAK-243 or ipatasertib. Complex spheroids include a stromal component modeled by human endothelial cells (HUVEC) and fibroblasts modeled by human mesenchymal stem cells (MSCs). The concentration ranges selected for each drug and investigational agent were based upon clinically achievable concentrations if the clinical Cmax of the agent was known.
Compounds. The drugs and investigational agents: TAK-243 (785004), ipatasertib (767898), everolimus (733504), selumetinib (741078), bortezomib (756655), trametinib (758246), ixazomib (758254), vemurafenib (761431), dabrafenib (764134), sapanisertib (764658), alpelisib (765974), and copanlisib (816437), were obtained from the National Cancer Institute (NCI) Developmental Therapeutics Program Chemical Repository. The FDA-approved anticancer drug set is available from the NCI Developmental Therapeutics Program. […] The stock solutions were prepared in dimethyl sulfoxide (DMSO, Sigma-Aldrich, St. Louis, MO, cat. D2650) at 800-fold the tested concentration and stored at -70 degrees C prior to their use. All drugs and investigational agents were tested over a range starting from a high concentration at or near the clinical Cmax and decreasing in half-log increments. If the clinical Cmax for an agent had not been determined, the highest concentration tested was 10 microM.
NCI60 Cell Culture. NCI60 cell lines were obtained from the NCI Developmental Therapeutics Program Tumor Repository. For each lot of cells, the Repository performed Applied Biosystems AmpFLSTR Identifiler testing with PCR amplification to confirm consistency with the published Identifier STR profile for each cell line. Cells were kept in continuous culture for no more than 20 passages. The optimal seeding densities for each of the cell lines at each time point assessed were determined prior to performing the concentration response studies. Briefly, the NCI60 human tumor lines were grown as monolayers in RPMI 1640 medium supplemented with 10% FBS and 2 mmol/L L-glutamine.
An additional 2 lines were from the NCI60 cell line panel including melanomas, MALME-3M and SK-MEL-2. Pooled donor human umbilical vein endothelial cells (HUVEC, Lonza, cat. CC-2519) and human mesenchymal stem cells (hMSC, Lonza, cat. PT-2501) were purchased from Lonza (Walkersville, MD).
PDMR cell lines were grown in complete medium (DC medium): Dulbecco's modified Eagle's medium (DMEM)/F12 supplemented with 5% fetal bovine serum (FBS), 2 mM L-glutamine, 100 U/mL penicillin and 100 µg/ml streptomycin, 0.4 µg/ml hydrocortisone, 10 ng/ml epidermal growth factor (EGF) recombinant human protein, 24 µg/mL adenine, and 0.1 mg/mL primocin. During culture from frozen stock vials, PDMR cells were cultured in the same medium containing 10 µM Y-27632 (see Table 3). The PDCs were cultured in complete DMEM/F12 media without 10 microM Y-27632 dihydrochloride for at least two passages prior to the screen. The pooled donor HUVEC and hMSC were cultured in endothelial cell growth medium 2 (PromoCell, Heidelberg, Germany, cat. C-22011) and mesenchymal stem cell growth medium 2 (PromoCell, cat. C-28009), respectively. For all experiments, HUVEC and hMSC were used at passages </=5.
For the pre-screen, cell seeding densities were determined from a titration spanning the range from 5,000 to 313 cells per well. The mct-spheroids including 60% malignant cells, 25% HUVEC and 15% MSC dispensed as a mixture into U-bottom Ultra-Low Attachment 384-well plates (Corning, NY)
High-throughput Drug Combination Screening.
Prior to their inoculation into 384-well plates, malignant cells, HUVEC, and hMSC were removed from T flasks using TrypLE express (Thermo Fisher Scientific, cat. 12605036) and harvested by centrifugation for 5 min at 233 x g. […]

[1] = curve of first compound, second compound 0.3 µM
[2] = curve of first compound, second compound 0.949 µM
[3] = curve of first compound, second compound 3 µM
[4] = curve of first compound, second compound 9.49 µM
[5] = curve of first compound, second compound 30 µM
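Note: spheroids exposed to drug for 7 days before readout.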
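Throughout, for viability, T/C: 100% = DMSO vehicle control wells.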

Compound: CC(C)CC(NC(=O)CNC(=O)c1cc(Cl)ccc1Cl)B1OC(=O)CC(CC(=O)O)(C(=O)O)O1 (configuration not stated) + CC(C)NCC(C(=O)N1CCN(c2ncnc3c2C(C)CC3O)CC1)c1ccc(Cl)cc1
IC50 [1]: > 0.1 µM
IC50 [2]: > 0.1 µM
IC50 [3]: > 0.1 µM
IC50 [4]: > 0.1 µM
IC50 [5]: > 0.1 µM
viability, T/C (second compound 0.3 µM, first compound 0.000316 µM): 100%
viability, T/C (second compound 0.3 µM, first compound 0.001 µM): 105%
viability, T/C (second compound 0.3 µM, first compound 0.00316 µM): 93.4%
viability, T/C (second compound 0.3 µM, first compound 0.01 µM): 108%
viability, T/C (second compound 0.3 µM, first compound 0.0316 µM): 99.4%
viability, T/C (second compound 0.3 µM, first compound 0.1 µM): 79.5%
viability, T/C (second compound 0.949 µM, first compound 0.000316 µM): 94%
viability, T/C (second compound 0.949 µM, first compound 0.001 µM): 93.8%
viability, T/C (second compound 0.949 µM, first compound 0.00316 µM): 97.1%
viability, T/C (second compound 0.949 µM, first compound 0.01 µM): 103%
viability, T/C (second compound 0.949 µM, first compound 0.0316 µM): 103%
viability, T/C (second compound 0.949 µM, first compound 0.1 µM): 70.6%
viability, T/C (second compound 3 µM, first compound 0.000316 µM): 104%
viability, T/C (second compound 3 µM, first compound 0.001 µM): 102%
viability, T/C (second compound 3 µM, first compound 0.00316 µM): 98.2%
viability, T/C (second compound 3 µM, first compound 0.01 µM): 105%
viability, T/C (second compound 3 µM, first compound 0.0316 µM): 95.2%
viability, T/C (second compound 3 µM, first compound 0.1 µM): 73.4%
viability, T/C (second compound 9.49 µM, first compound 0.000316 µM): 94%
viability, T/C (second compound 9.49 µM, first compound 0.001 µM): 94.8%
viability, T/C (second compound 9.49 µM, first compound 0.00316 µM): 102%
viability, T/C (second compound 9.49 µM, first compound 0.01 µM): 101%
viability, T/C (second compound 9.49 µM, first compound 0.0316 µM): 95.5%
viability, T/C (second compound 9.49 µM, first compound 0.1 µM): 79.9%
viability, T/C (second compound 30 µM, first compound 0.000316 µM): 79%
viability, T/C (second compound 30 µM, first compound 0.001 µM): 89.4%
viability, T/C (second compound 30 µM, first compound 0.00316 µM): 89.4%
viability, T/C (second compound 30 µM, first compound 0.01 µM): 88%
viability, T/C (second compound 30 µM, first compound 0.0316 µM): 84.5%
viability, T/C (second compound 30 µM, first compound 0.1 µM): 72.7%

IC50 (curve of compound): > 10 µM
Compound: Cc1nc(NC(=O)N2CCCC2C(N)=O)sc1-c1ccnc(C(C)(C)C(F)(F)F)c1 (configuration not stated)
viability, T/C (compound 0.0316 µM): 113% and 104%
viability, T/C (compound 0.1 µM): 106% and 95.2%
viability, T/C (compound 0.316 µM): 106% and 93.9%
viability, T/C (compound 1 µM): 92.5% and 89.1%
viability, T/C (compound 3.16 µM): 91.7% and 87.4%
viability, T/C (compound 10 µM): 92.9% and 87.8%

Compound: CCCS(=O)(=O)Nc1ccc(F)c(C(=O)c2c[nH]c3ncc(-c4ccc(Cl)cc4)cc23)c1F + CC(C)NCC(C(=O)N1CCN(c2ncnc3c2C(C)CC3O)CC1)c1ccc(Cl)cc1
IC50 [1]: > 100 µM
IC50 [2]: 23.6 µM
IC50 [3]: > 100 µM
IC50 [4]: > 100 µM
IC50 [5]: 17.9 µM
viability, T/C (second compound 0.3 µM, first compound 0.316 µM): 94.5%
viability, T/C (second compound 0.3 µM, first compound 1 µM): 95.2%
viability, T/C (second compound 0.3 µM, first compound 3.16 µM): 94.4%
viability, T/C (second compound 0.3 µM, first compound 10 µM): 72.3%
viability, T/C (second compound 0.3 µM, first compound 31.6 µM): 13.6%
viability, T/C (second compound 0.3 µM, first compound 100 µM): 97.5%
viability, T/C (second compound 0.949 µM, first compound 0.316 µM): 89.9%
viability, T/C (second compound 0.949 µM, first compound 1 µM): 93.2%
viability, T/C (second compound 0.949 µM, first compound 3.16 µM): 94.6%
viability, T/C (second compound 0.949 µM, first compound 10 µM): 57.5%
viability, T/C (second compound 0.949 µM, first compound 31.6 µM): 1.16%
viability, T/C (second compound 0.949 µM, first compound 100 µM): 93.7%
viability, T/C (second compound 3 µM, first compound 0.316 µM): 97.6%
viability, T/C (second compound 3 µM, first compound 1 µM): 93.3%
viability, T/C (second compound 3 µM, first compound 3.16 µM): 101%
viability, T/C (second compound 3 µM, first compound 10 µM): 71.3%
viability, T/C (second compound 3 µM, first compound 31.6 µM): 0.49%
viability, T/C (second compound 3 µM, first compound 100 µM): 97.8%
viability, T/C (second compound 9.49 µM, first compound 0.316 µM): 91.9%
viability, T/C (second compound 9.49 µM, first compound 1 µM): 94.1%
viability, T/C (second compound 9.49 µM, first compound 3.16 µM): 89.1%
viability, T/C (second compound 9.49 µM, first compound 10 µM): 70.2%
viability, T/C (second compound 9.49 µM, first compound 31.6 µM): 18.5%
viability, T/C (second compound 9.49 µM, first compound 100 µM): 105%
viability, T/C (second compound 30 µM, first compound 0.316 µM): 77.2%
viability, T/C (second compound 30 µM, first compound 1 µM): 90.9%
viability, T/C (second compound 30 µM, first compound 3.16 µM): 87.4%
viability, T/C (second compound 30 µM, first compound 10 µM): 53.6%
viability, T/C (second compound 30 µM, first compound 31.6 µM): 2.13%
viability, T/C (second compound 30 µM, first compound 100 µM): 90.7%
